# In patent US4160783A, “4-Dedimethylamino-4-arylsulfonamido-5a,6-anhydrotetracyclines” (PLIVA Pharmaceutical and Chemical Works, priority 1976, dated 1979):
# Test system: Micrococcus flavus ATCC 10240, Sarcina lutea ATCC 9341 and Staph. epidermidis ATCC 12228
# Test: antibacterial activity compared with tetracycline, statement for three organisms
# Assay type: cell-based
# Conditions: strongest activity against M. flavus ATCC 10240, Sarcina lutea ATCC 9341, Staph. epidermidis ATCC 12228
row,Compound,activity relative to that of tetracycline
1,"CCc1ccc(S(=O)(=O)NC2C(O)=C(C(N)=O)C(=O)C3(O)C(=O)c4c(c(C)c5cccc(O)c5c4O)CC23)cc1 (stereo not shown) [Compound 6, 4-p-ethylbenzenesulfonamido-5a,6-anhydrotetracycline]",considerably superior or equal to that of tetracycline
2,"Cc1c2c(c(O)c3c(O)cccc13)C(=O)C1(O)C(=O)C(C(N)=O)=C(O)C(NS(=O)(=O)c3ccc(Br)cc3)C1C2 (stereo not shown) [Compound 4, 4-p-bromobenzenesulfonamido-5a,6-anhydrotetracycline]",considerably superior or equal to that of tetracycline
3,"Cc1c2c(c(O)c3c(O)cccc13)C(=O)C1(O)C(=O)C(C(N)=O)=C(O)C(NS(=O)(=O)c3ccc(F)cc3)C1C2 (stereo not shown) [Compound 3, 4-p-fluorbenzenesulfonamido-5a,6-anhydrotetracycline]",considerably superior or equal to that of tetracycline
4,"Cc1ccc(S(=O)(=O)NC2C(O)=C(C(N)=O)C(=O)C3(O)C(=O)c4c(c(C)c5cccc(O)c5c4O)CC23)cc1 (stereo not shown) [Compound 2, 4-p-toluene-sulfonamido-5a,6-anhydrotetracycline]",considerably superior or equal to that of tetracycline
